The source of these data is article PMC11969024, “Development of chemokine network inhibitors using combinatorial saturation mutagenesis” (Communications Biology, 2025).

The test deals with THP1 cells, activated T-cells (ATC), J:CXCR1 cells. Description: Meta-analysis of individual chemokine-induced cell migration experiments. It is filed as cell-based, human. As to conditions: seven CC and three CXC chemokines, Dunnett's test. How it is done:
Cell migration assays were performed as follows. THP1 cell migration. Briefly, 300000 cells/well were added to the top chamber of a 5-µm 96-well Transwell insert (3387, Corning) in 50 µL of cell migration media (RPMI-1640 (R0883, Sigma), 0.5% FBS (F9665, Sigma), 4mM L-Glutamine (G7513, Sigma), 0.05% DMSO (D4540, Sigma)). The bottom chamber contained 150 µL of migration media with chemokine and peptide. Cells were migrated at 37 °C in 5% CO2 for 4 h. J:CXCR1 cell migration was performed exactly as above using a 3-µm Transwell insert (3385, Corning). Activated T-cell migration. Briefly, 100000 cells/well were added to the top chamber of a 3-µm Transwell insert (3385, Corning) in 50 µL of migration media (HBSS (14025-092, Life Technologies), 0.1% protease free bovine serum albumin (A7030, Sigma), 0.05% DMSO (D4540, Sigma)). The bottom chamber contained 150 µL of migration media with chemokine and peptide. Cells were migrated at 37 °C in 5% CO2 for 2 h. Buffy coat migration. Briefly, a mixture of all cell types at 100000 cells/well were added to the top chamber of a 3-µm Transwell insert (3385, Corning) in 50 µL of migration media (HBSS (14025-092, Life Technologies), 0.1% protease free bovine serum albumin (A7030, Sigma), 0.05% DMSO (D4540, Sigma). The bottom chamber contained 150 µL of migration media with chemokine and peptide. Cells were migrated at 37 °C in 5% CO2 for 2 h. Analysis of cell migration. The migration plate was shaken at 850 RPM for 10 min, and media from bottom plate transferred to a round-bottomed 96 well plate (353910, Falcon). Cells were counted by flow cytometry as described above. Experiments were performed at chemokine EC80 for individual chemotaxis experiments and at EC50 for the pooled chemokine experiments, with three technical replicates, and at least three biological replicates. Statistical significance of differences between control and test groups was evaluated using a two-sided Dunnett’s test with multiple testing correction. Chemokine EC80 or chemokine pool EC50 values were as determined by performing a chemokine dose-response against the cell type and fitting the dose-response curve with a 3-parameter log-logistic model, where the maximal response is fixed at 100% response. […] IC50 was determined by performing inhibitor dose-response experiments and fitting the dose-response curve with a 3-parameter log-logistic model, fixing the bottom of the curve to zero. […] For summary statistics and comparisons, pEC50, pEC80 and pIC50 were calculated as the negative log10 of EC50, EC80 or IC50 expressed in moles/litre.
Sample size and estimated effect sizes were not formally calculated for cell-based or phage-display experiments and no randomization was performed. […]

With “EEDDWTAYAPLTCYFT [HD2Y5W, HD2 point mutant]”, the “migrated cell count over all chemokines studied, compared to HD2 (meta-analysis)” value is “significant improvement over HD2”.
The value for “EEDDYWAYAPLTCYFT [HD2T6W, HD2 point mutant]” was “significant improvement over HD2”.
